Results as given in patent US11591331B2, “PARP1 inhibitors and uses thereof” (Xinthera, Inc., priority 2021, dated 2023).
pEC50: −log10 of the molar value.

Key:
Test in all cases: Cell growth inhibition assay (CellTiter-Glo cell viability, 7 days)
Format in all cases: cell-based
DLD-1 BRCA2(−/−) = details: Homo sapiens, 168 h, DLD-1 BRCA2(-/-) cells
[1] = system: MDA-MB-436 (mutated BRCA1) cell lines; details: Homo sapiens, 168 h, MDA-MB-436 cells
DLD-1 parental = details: Homo sapiens, 168 h, DLD-1 parental cells
Text: Example A: Cell Growth Inhibition Assay
The objective of this study is to evaluate the effect of invention compounds on cell proliferation through the cell viability assay in DLD-1 BRCA2(−/−) and parental isogenic pair and MDA-MB-436 (mutated BRCA1) cell lines. The CellTiter-Glo (CTG) based cell viability assay is designed to determine the number of viable cells in the culture because of compound effect, by quantifying ATP, which indicates the presence of metabolically active cells.
DLD-1 BRCA2(−/−) and parental isogenic pair were cultured in RPMI 1640 supplemented with 10% fetal bovine serum (FBS), and MDA-MB-436 cells were cultured in DMEM supplemented with 10% FBS. Both are culture at 37° C. with 5% CO2. Invention compounds were distributed to the 384 well plate (Corning, 3764) using Echo acoustic liquid handler to form a 1:3 serially diluted final concentration with top dose of 10 or 30 μM. The cells were seeded into the plate in the density of 50 cells/well (DLD-1 parental), 200 cells/well (DLD-1 BRCA2−/−), or 500 cells/well (MDA-MB-436). After a short spun, the cells were cultured in a well moisturized incubator at 37° C. with 5% CO2 for 7 days without disturbance. The cell viability was measured by CellTiter Glo 2.0 assay kit (Promega, G9243), and growth inhibition rate was calculated and plotted against final compound concentration, and the data were fitted in Xfit to generate IC50.

Work on `CCc1cc2ncc(CN3CCN(c4ccc(C(=O)NC)nc4)[C@@H](C)C3)cc2[nH]c1=O` (racemic) [Example 27] yielded a pEC50 (DLD-1 BRCA2(−/−)) of 8.39, a pEC50 [1] of 9.00 and a pEC50 (DLD-1 parental) of 4.49.

`CCc1cc2ncc(CN3CCN(c4ccc(C(=O)NC)nc4)C[C@H]3C)cc2[nH]c1=O` (racemic) [Example 161] was tested, and the pEC50 (DLD-1 BRCA2(−/−)) was 7.66 and the pEC50 (DLD-1 parental) was < 5.00.

`CCc1cc2ncc(CN3CCN(c4ccc(C(=O)NC)nc4)[C@H]4C[C@H]43)cc2[nH]c1=O` (single isomer, unassigned) [Example 3B] showed a pEC50 (DLD-1 BRCA2(−/−)) of 8.49, a pEC50 [1] of 8.82 and a pEC50 (DLD-1 parental) of 4.54.

`CCc1cc2ncc(CN3CCN(c4ccc(C(=O)NC)nc4)[C@@H]4C[C@@H]43)cc2[nH]c1=O` (stereo in doubt) [Example 3A, rel-5-[(1R,6S)-5-[(7-ethyl-6-oxo-5H-1,5-naphthyridin-3-yl)methyl]-2,5-diazabicyclo[4.1.0]heptan-2-yl]-N-methylpyridine-2-carboxamide] was tested, and the pEC50 (DLD-1 BRCA2(−/−)) was 6.64, the pEC50 [1] was 7.62 and the pEC50 (DLD-1 parental) was < 4.52.

With `CCc1cc2ncc(CN3CCN(c4ccc(C(=O)NC)nc4)[C@H]4C[C@H]43)cc2[nH]c1=O` (stereo in doubt) [Example 28] the pEC50 (DLD-1 BRCA2(−/−)) was 8.49, the pEC50 [1] was 9.10 and the pEC50 (DLD-1 parental) was 4.48.

For `CCc1cc2ncc(CN3CCN(c4ccc(C(=O)NC)nc4C#N)[C@H](C)C3)cc2[nH]c1=O` [Example 4, 6-cyano-5-[(2R)-4-[(7-ethyl-6-oxo-5H-1,5-naphthyridin-3-yl)methyl]-2-methylpiperazin-1-yl]-N-methylpyridine-2-carboxamide], the pEC50 (DLD-1 BRCA2(−/−)) was 8.80, the pEC50 [1] was 9.16 and the pEC50 (DLD-1 parental) was < 4.52.

With `CCc1cc2ncc(CN3CCN(c4ccc(C(=O)NC)nc4C4CC4)CC3)cc2[nH]c1=O` [Example 6, 6-cyclopropyl-5-(4-((7-ethyl-6-oxo-5,6-dihydro-1,5-naphthyridin-3-yl)methyl)piperazin-1-yl)-N-methylpicolinamide] the pEC50 (DLD-1 BRCA2(−/−)) was 8.55, the pEC50 [1] was 8.77 and the pEC50 (DLD-1 parental) was 4.96.

Molecule `CCc1cc2ncc(CN3CCN(c4ccc(C(=O)NC)c(F)c4)CC3)cc2[nH]c1=O` [Example 7, 4-{4-[(7-ethyl-6-oxo-5H-1,5-naphthyridin-3-yl)methyl]piperazin-1-yl}-2-fluoro-N-methylbenzamide] has a pEC50 (DLD-1 BRCA2(−/−)) of 8.51, a pEC50 [1] of 8.89 and a pEC50 (DLD-1 parental) of 3.52.

With `CCc1cc2ncc(CN3CC=C(c4ccc(C(=O)NC)nc4)CC3)cc2[nH]c1=O` [Example 8, 1′-((7-ethyl-6-oxo-5,6-dihydro-1,5-naphthyridin-3-yl)methyl)-N-methyl-1′,2′,3′,6′-tetrahydro-[3,4′-bipyridine]-6-carboxamide] the pEC50 (DLD-1 BRCA2(−/−)) was 9.00, the pEC50 [1] was 9.60 and the pEC50 (DLD-1 parental) was 4.05.

Work on `CCc1cc2ccc(CN3CCN(c4ccc(C#N)cn4)CC3)cc2[nH]c1=O` [Example 9, 6-{4-[(3-ethyl-2-oxo-1H-quinolin-7-yl)methyl]piperazin-1-yl}pyridine-3-carbonitrile] yielded a pEC50 (DLD-1 BRCA2(−/−)) of 8.46, a pEC50 [1] of 8.82 and a pEC50 (DLD-1 parental) of 4.89.

Molecule `CNC(=O)c1ccc(N2CCN(Cc3ccc4c5c(c(=O)[nH]c4c3)CCC5)CC2)cn1` [Example 10, N-methyl-5-[4-({4-oxo-1H,2H,3H,5H-cyclopenta[c]quinolin-7-yl}methyl)piperazin-1-yl]pyridine-2-carboxamide] has a pEC50 (DLD-1 BRCA2(−/−)) of 8.59, a pEC50 [1] of 9.17 and a pEC50 (DLD-1 parental) of 2.85.

With `CNC(=O)c1ccc(N2CCN(Cc3ccc4c(c3)[nH]c(=O)c3ccoc34)CC2)cn1` [Example 11, N-methyl-5-[4-({4-oxo-5H-furo[3,2-c]quinolin-7-yl}methyl)piperazin-1-yl]pyridine-2-carboxamide] the pEC50 (DLD-1 BRCA2(−/−)) was 8.55, the pEC50 [1] was 8.96 and the pEC50 (DLD-1 parental) was 3.36.

With `CCc1cc2ncc(CN3CCN(c4ccc(C(=O)NC5CC5)nc4)CC3)cc2[nH]c1=O` [Example 12, N-cyclopropyl-5-{4-[(7-ethyl-6-oxo-5H-1,5-naphthyridin-3-yl)methyl]piperazin-1-yl}pyridine-2-carboxamide] the pEC50 (DLD-1 BRCA2(−/−)) was 8.96, the pEC50 [1] was 9.21 and the pEC50 (DLD-1 parental) was 4.29.

With `CCc1cc2ncc(CN3CCN(c4ccc(C(=O)NCC(F)F)nc4)CC3)cc2[nH]c1=O` [Example 13, N-(2,2-difluoroethyl)-5-{4-[(7-ethyl-6-oxo-5H-1,5-naphthyridin-3-yl)methyl]piperazin-1-yl} pyridine-2-carboxamide] the pEC50 (DLD-1 BRCA2(−/−)) was 9.00, the pEC50 [1] was 9.27 and the pEC50 (DLD-1 parental) was < 4.52.

`CCc1cc2ncc(CN3CCN(c4ccc(C(=O)NC)nc4C(F)F)CC3)cc2[nH]c1=O` [Example 14, 6-(difluoromethyl)-5-{4-[(7-ethyl-6-oxo-5H-1,5-naphthyridin-3-yl)methyl]piperazin-1-yl}-N-methylpyridine-2-carboxamide] was tested, and the pEC50 (DLD-1 BRCA2(−/−)) was 9.00, the pEC50 [1] was 9.28 and the pEC50 (DLD-1 parental) was < 4.52.

`CCc1cc2ncc(CN3CCC(c4ccc(C(=O)NC)nc4)CC3)cc2[nH]c1=O` [Example 16, 5-(1-((7-ethyl-6-oxo-5,6-dihydro-1,5-naphthyridin-3-yl)methyl)piperidin-4-yl)-N-methylpicolinamide] was tested, and the pEC50 (DLD-1 BRCA2(−/−)) was 8.38, the pEC50 [1] was 8.89 and the pEC50 (DLD-1 parental) was < 4.52.

For `CCc1cc2ncc(CN3CCN(c4ccc(C(=O)NC)cc4C#N)CC3)cc2[nH]c1=O` [Example 17, 3-cyano-4-{4-[(7-ethyl-6-oxo-5H-1,5-naphthyridin-3-yl)methyl]piperazin-1-yl}-N-methylbenzamide], the pEC50 (DLD-1 BRCA2(−/−)) was 8.68, the pEC50 [1] was 8.96 and the pEC50 (DLD-1 parental) was < 4.52.

In the case of `CCc1cc2ncc(CN3CCN4c5ccc(C(=O)NC)nc5OC[C@H]4C3)cc2[nH]c1=O` [Example 22A, (R)-3-((7-ethyl-6-oxo-5,6-dihydro-1,5-naphthyridin-3-yl)methyl)-N-methyl-1,2,3,4,4a,5-hexahydropyrazino[1,2-d]pyrido[2,3-b][1,4]oxazine-8-carboxamide], the pEC50 (DLD-1 BRCA2(−/−)) was 8.82, the pEC50 [1] was 9.00 and the pEC50 (DLD-1 parental) was < 4.52.

For `CCc1cc2ncc(CN3CC(Oc4ccc(C(=O)NC)nc4)C3)cc2[nH]c1=O` [Example 25, 5-({1-[(7-ethyl-6-oxo-5H-1,5-naphthyridin-3-yl)methyl]azetidin-3-yl}oxy)-N-methylpyridine-2-carboxamide], the pEC50 (DLD-1 BRCA2(−/−)) was 8.06, the pEC50 [1] was 8.38 and the pEC50 (DLD-1 parental) was < 4.52.

`CCc1cc2ncc(CN3CCN(c4cnc(C(=O)NC)s4)CC3)cc2[nH]c1=O` [Example 30] showed a pEC50 (DLD-1 BRCA2(−/−)) of 6.66, a pEC50 [1] of 7.24 and a pEC50 (DLD-1 parental) of 4.40.

Work on `CNC(=O)c1ccc(N2CCN(Cc3ccc4cc(OC(F)F)c(=O)[nH]c4c3)CC2)cn1` [Example 31] yielded a pEC50 (DLD-1 BRCA2(−/−)) of 7.32, a pEC50 [1] of 7.82 and a pEC50 (DLD-1 parental) of 4.25.

In the case of `CCc1cc2ncc(CN3CCN(c4ccc(-n5cnnc5)cc4)CC3)cc2[nH]c1=O` [Example 32], the pEC50 (DLD-1 BRCA2(−/−)) was 7.11, the pEC50 [1] was 7.82 and the pEC50 (DLD-1 parental) was < 4.52.

In the case of `CNC(=O)c1ccc(N2CCN(Cc3cnc4cc(C)c(=O)[nH]c4c3)CC2)cn1` [Example 33], the pEC50 (DLD-1 BRCA2(−/−)) was 8.19, the pEC50 [1] was 8.51 and the pEC50 (DLD-1 parental) was < 4.52.

With `[2H]C([2H])(c1cnc2cc(CC)c(=O)[nH]c2c1)N1CCN(c2cnc(C(=O)NC)c(F)c2)CC1` [Example 35] the pEC50 (DLD-1 BRCA2(−/−)) was 8.64, the pEC50 [1] was 8.89 and the pEC50 (DLD-1 parental) was < 4.52.

Work on `O=C(NC1CC1)c1ccc(N2CCN(Cc3cnc4cc(Cl)c(=O)[nH]c4c3)CC2)cn1` [Example 147] yielded a pEC50 (DLD-1 BRCA2(−/−)) of 8.54 and a pEC50 [1] of 8.89.

Work on `CNC(=O)c1ccc(N2CCN(Cc3cnc4c(C)c(Cl)c(=O)[nH]c4c3)CC2)cn1` [Example 148, 5-{4-[(7-chloro-8-methyl-6-oxo-5H-1,5-naphthyridin-3-yl)methyl]piperazin-1-yl}-N-methylpyridine-2-carboxamide] yielded a pEC50 (DLD-1 BRCA2(−/−)) of 8.70 and a pEC50 [1] of 8.82.

`CNC(=O)c1ccc(N2CCN(Cc3cnc4cc(N5CCC5)c(=O)[nH]c4c3)CC2)cn1` [Example 149] gave a pEC50 (DLD-1 BRCA2(−/−)) of 7.77 and a pEC50 [1] of 8.03.

With `CCc1cc2ccc(CN3CCN(c4ccc(C(=O)NC)nc4F)CC3)nc2[nH]c1=O` [Example 150] the pEC50 (DLD-1 BRCA2(−/−)) was 7.74 and the pEC50 [1] was 8.05.

`CNC(=O)c1ccc(N2CCN(Cc3cnc4c(C(F)F)c(C)c(=O)[nH]c4c3)CC2)cn1` [Example 151] gave a pEC50 (DLD-1 BRCA2(−/−)) of 7.80 and a pEC50 [1] of 7.55.

For `O=C(NC1CC1)c1ccc(N2CCN(Cc3cnc4cc(Cl)c(=O)[nH]c4c3)CC2)c(F)n1` [Example 152], the pEC50 (DLD-1 BRCA2(−/−)) was 8.96 and the pEC50 [1] was 9.29.

`CNC(=O)c1ccc(C2=CCN(Cc3cnc4cc(Cl)c(=O)[nH]c4c3)CC2)c(F)n1` [Example 153] was tested, and the pEC50 (DLD-1 BRCA2(−/−)) was 9.02 and the pEC50 [1] was 9.13.

Molecule `Cc1c(Cl)c(=O)[nH]c2cc(CN3CCN(c4ccc(C(=O)NC5CC5)nc4)CC3)cnc12` [Example 154] has a pEC50 (DLD-1 BRCA2(−/−)) of 8.52 and a pEC50 [1] of 8.80.

For `CNC(=O)c1ccc(N2CCN(Cc3cnc4c(C)c(Cl)c(=O)[nH]c4c3)CC2)c(F)n1` [Example 156], the pEC50 (DLD-1 BRCA2(−/−)) was 9.17 and the pEC50 [1] was 9.41.

Work on `N#CC12CC(N3CCN(Cc4cnc5cc(Cl)c(=O)[nH]c5c4)CC3)(C1)C2` [Example 157] yielded a pEC50 (DLD-1 BRCA2(−/−)) of 7.21 and a pEC50 [1] of 7.39.

`O=C(NC1CC1)c1ccc(N2CCN(Cc3cnc4cc(C5CC5)c(=O)[nH]c4c3)CC2)c(F)n1` [Example 158] was tested, and the pEC50 (DLD-1 BRCA2(−/−)) was 8.68 and the pEC50 [1] was 9.00.

`CNC(=O)c1ccc(N2CCN(Cc3cnc4c(Cl)c(Br)c(=O)[nH]c4c3)CC2)cn1` [Example 159] gave a pEC50 (DLD-1 BRCA2(−/−)) of 8.77 and a pEC50 [1] of 9.14.

In the case of `CNC(=O)c1ccc(C2=CCN(Cc3cnc4cc(Cl)c(=O)[nH]c4c3)CC2)cn1` [Example 160], the pEC50 (DLD-1 BRCA2(−/−)) was 8.59 and the pEC50 [1] was 8.68.
